# Results reported in BindingDB's records for doi:10.1021/jm00056a003 (Universit&#224, 1993).
# Target: L-type calcium channel (Felis catus)
# Test: Inhibition of (-)-[3H]- D-888 binding to L-type calcium channels in kitten heart ventricle membranes
compound,measurement,value
"COc1ccc(CCN(C)C2CCCC(C(C#N)(c3ccc(OC)c(OC)c3)C(C)C)C2)cc1OC (stereo unspecified) [(RSR) 2-(3,4-Dimethoxy-phenyl)-2-(3-{[2-(3,4-dimethoxy-phenyl)-ethyl]-methyl-amino}-cyclohexyl)-3-methyl-butyronitrile]",IC50,260 nM
